From the supplement of paper PMC11208160

Test: recombinant UMI read abundance after kanamycin selection (control-corrected) (log10(CPM+1)); higher = more efficient recombination; extreme values may be limits of the assay; sequences stand for … in AGTGCAGAGAAAATCGGCCAGTTTTCTCTGCCTGCAGTCCGCATGCCGTGGGACCCCTTGGGTTCTAACCTGTTGCCTAGATTTATGCAGCGGACTGCCTTTCTCCCAAAGTGATAAACCGG…AGGTTGGTTTCACT; site = the 11-nt donor
How it was run: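 For the IS621 bridge recombinase, a pooled Escherichia coli screen tested donor and donor-binding-loop pairs. Cells received the pair library together with a target plasmid encoding a fixed target and T7-inducible recombinase, then went onto IPTG (0.07 mM) plus kanamycin or unselected plates in duplicate. After PCR across the donor–target junction and sequencing, recombinant UMI counts were normalized to CPM, averaged, and scaled by control-derived factors. Each value is given as log10(CPM+1).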
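Further: IS621 bridge recombinase in Escherichia coli cells against a fixed T5 target plasmid.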

Question: Which “recombinant UMI read abundance (log10)” value does the source give for “ACTGGTGCATGGACCGGTTTTCCCGGTAATCCGTATTTGGT (site ACTGGTGCTAC)” here?
Answer: 1.69

Question: With “ACTGGTGCATGGACCGGTTTTCCCGGTAATCCGTATTTGGT (site ACTTGTGCTAC)” as the sequence, how does the “recombinant UMI read abundance (log10)” value read?
Answer: 0.401

Question: With “ACTGTAACATGGACCGGTTTTCCCGGTAATCCGTATTTGCT (site AATGTAACTAG)” as the sequence, how does the “recombinant UMI read abundance (log10)” value read?
Answer: 0.987

Question: Which “recombinant UMI read abundance (log10)” value does the source give for “ACTGTAACATGGACCGGTTTTCCCGGTAATCCGTATTTGCT (site ACTGTAACTAG)” here?
Answer: 2.23

Question: With “ACTGTAACATGGACCGGTTTTCCCGGTAATCCGTATTTGCT (site AGTGTAACTAG)” as the sequence, how does the “recombinant UMI read abundance (log10)” value read?
Answer: 1.12

Question: Which “recombinant UMI read abundance (log10)” value does the source give for “ACTGTAACATGGACCGGTTTTCCCGGTAATCCGTATTTGCT (site ATTGTAACTAG)” here?
Answer: 1.55

Question: For “ACTGTGTCATGGACCGGTTTTCCCGGTAATCCGTATTTGCA (site ACAGTATCTTG)”, which “recombinant UMI read abundance (log10)” value is on record?
Answer: 2.5

Question: For “ACTGTGTCATGGACCGGTTTTCCCGGTAATCCGTATTTGCA (site ACTGTGTCTTG)”, which “recombinant UMI read abundance (log10)” value is on record?
Answer: 2.89

Question: Which “recombinant UMI read abundance (log10)” value does the source give for “ACTTAACCATGGACCGGTTTTCCCGGTAATCCGTATTTGCA (site ACTTAACCTTG)” here?
Answer: 0

Question: For “ACTTAGACATGGACCGGTTTTCCCGGTAATCCGTATTTGGG (site ACATAGACTCC)”, which “recombinant UMI read abundance (log10)” value is on record?
Answer: 0.0123

Question: With “ACTTAGACATGGACCGGTTTTCCCGGTAATCCGTATTTGGG (site ACCTAGACTCC)” as the sequence, how does the “recombinant UMI read abundance (log10)” value read?
Answer: 0.00452

Question: Which “recombinant UMI read abundance (log10)” value does the source give for “ACTTAGACATGGACCGGTTTTCCCGGTAATCCGTATTTGGG (site ACGTAGACTCC)” here?
Answer: 0.00655

Question: For “ACTTAGACATGGACCGGTTTTCCCGGTAATCCGTATTTGGG (site ACTTAGACTCC)”, which “recombinant UMI read abundance (log10)” value is on record?
Answer: 0.0876

Question: With “ACTTCGTCATGGACCGGTTTTCCCGGTAATCCGTATTTGTG (site ACTTCGTCTCA)” as the sequence, how does the “recombinant UMI read abundance (log10)” value read?
Answer: 0.306

Question: With “ACTTCTACATGGACCGGTTTTCCCGGTAATCCGTATTTGTG (site ACATCTACTCA)” as the sequence, how does the “recombinant UMI read abundance (log10)” value read?
Answer: 0.0153

Question: For “ACTTCTACATGGACCGGTTTTCCCGGTAATCCGTATTTGTG (site ACCTCTACTCA)”, which “recombinant UMI read abundance (log10)” value is on record?
Answer: 0.00536

Question: With “ACTTCTACATGGACCGGTTTTCCCGGTAATCCGTATTTGTG (site ACGTCTACTCA)” as the sequence, how does the “recombinant UMI read abundance (log10)” value read?
Answer: 0.0444

Question: With “ACTTCTACATGGACCGGTTTTCCCGGTAATCCGTATTTGTG (site ACTTCTACTCA)” as the sequence, how does the “recombinant UMI read abundance (log10)” value read?
Answer: 0.179

Question: With “ACTTGTGCATGGACCGGTTTTCCCGGTAATCCGTATTTGGT (site ACTAGTGCTAC)” as the sequence, how does the “recombinant UMI read abundance (log10)” value read?
Answer: 0.652

Question: Which “recombinant UMI read abundance (log10)” value does the source give for “ACTTGTGCATGGACCGGTTTTCCCGGTAATCCGTATTTGGT (site ACTCGTGCTAC)” here?
Answer: 0.73

Question: For “ACTTGTGCATGGACCGGTTTTCCCGGTAATCCGTATTTGGT (site ACTGGTGCTAC)”, which “recombinant UMI read abundance (log10)” value is on record?
Answer: 0.211

Question: For “ACTTGTGCATGGACCGGTTTTCCCGGTAATCCGTATTTGGT (site ACTTGTGCTAC)”, which “recombinant UMI read abundance (log10)” value is on record?
Answer: 1.18

Question: Which “recombinant UMI read abundance (log10)” value does the source give for “ACTTTACCATGGACCGGTTTTCCCGGTAATCCGTATTTGCT (site ACTTTACCTAG)” here?
Answer: 0.431

Question: Which “recombinant UMI read abundance (log10)” value does the source give for “ACTTTATCATGGACCGGTTTTCCCGGTAATCCGTATTTGCA (site ACAGTATCTTG)” here?
Answer: 2.35

Question: Which “recombinant UMI read abundance (log10)” value does the source give for “ACTTTATCATGGACCGGTTTTCCCGGTAATCCGTATTTGCA (site ACTTTATCTTG)” here?
Answer: 1.85

Question: Which “recombinant UMI read abundance (log10)” value does the source give for “AGAAACACATGGACCGGTTTTCCCGGTAATCCGTATTTGTC (site AGAAACACTGA)” here?
Answer: 2.8

Question: For “AGAAAGACATGGACCGGTTTTCCCGGTAATCCGTATTTGCT (site AGAAAGACTAG)”, which “recombinant UMI read abundance (log10)” value is on record?
Answer: 2.1

Question: With “AGAAAGACATGGACCGGTTTTCCCGGTAATCCGTATTTGCT (site AGAAAGCCTAG)” as the sequence, how does the “recombinant UMI read abundance (log10)” value read?
Answer: 0.934

Question: Which “recombinant UMI read abundance (log10)” value does the source give for “AGAAAGACATGGACCGGTTTTCCCGGTAATCCGTATTTGCT (site AGAAAGGCTAG)” here?
Answer: 1.02

Question: For “AGAAAGACATGGACCGGTTTTCCCGGTAATCCGTATTTGCT (site AGAAAGTCTAG)”, which “recombinant UMI read abundance (log10)” value is on record?
Answer: 0.572

Question: With “AGAAAGGCATGGACCGGTTTTCCCGGTAATCCGTATTTGCA (site AGAAAGGCTAG)” as the sequence, how does the “recombinant UMI read abundance (log10)” value read?
Answer: 0

Question: For “AGAAAGGCATGGACCGGTTTTCCCGGTAATCCGTATTTGCA (site AGAAAGGCTCG)”, which “recombinant UMI read abundance (log10)” value is on record?
Answer: 0.889

Question: For “AGAAAGGCATGGACCGGTTTTCCCGGTAATCCGTATTTGCA (site AGAAAGGCTGG)”, which “recombinant UMI read abundance (log10)” value is on record?
Answer: 0

Question: Which “recombinant UMI read abundance (log10)” value does the source give for “AGAAAGGCATGGACCGGTTTTCCCGGTAATCCGTATTTGCA (site AGAAAGGCTTG)” here?
Answer: 1.9

Question: Which “recombinant UMI read abundance (log10)” value does the source give for “AGAAATGCATGGACCGGTTTTCCCGGTAATCCGTATTTGCT (site AGAAAAGCTAG)” here?
Answer: 1.53

Question: With “AGAAATGCATGGACCGGTTTTCCCGGTAATCCGTATTTGCT (site AGAAACGCTAG)” as the sequence, how does the “recombinant UMI read abundance (log10)” value read?
Answer: 1.8

Question: For “AGAAATGCATGGACCGGTTTTCCCGGTAATCCGTATTTGCT (site AGAAAGGCTAG)”, which “recombinant UMI read abundance (log10)” value is on record?
Answer: 0

Question: For “AGAAATGCATGGACCGGTTTTCCCGGTAATCCGTATTTGCT (site AGAAATGCTAG)”, which “recombinant UMI read abundance (log10)” value is on record?
Answer: 2.23

Question: For “AGAAATTCATGGACCGGTTTTCCCGGTAATCCGTATTTGCG (site AGAAATTCTCG)”, which “recombinant UMI read abundance (log10)” value is on record?
Answer: 1.94

Question: For “AGAACCGCATGGACCGGTTTTCCCGGTAATCCGTATTTGAC (site AGAACCGCTGT)”, which “recombinant UMI read abundance (log10)” value is on record?
Answer: 2.35

Question: With “AGAACGGCATGGACCGGTTTTCCCGGTAATCCGTATTTGCG (site AGAACGGCTCG)” as the sequence, how does the “recombinant UMI read abundance (log10)” value read?
Answer: 1.75

Question: For “AGAACTACATGGACCGGTTTTCCCGGTAATCCGTATTTGGG (site AGAACTACTCC)”, which “recombinant UMI read abundance (log10)” value is on record?
Answer: 0.434

Question: Which “recombinant UMI read abundance (log10)” value does the source give for “AGAAGCACATGGACCGGTTTTCCCGGTAATCCGTATTTGTC (site AGAAGCACTGA)” here?
Answer: 3.13

Question: For “AGAAGCCCATGGACCGGTTTTCCCGGTAATCCGTATTTGTC (site AGAAGCCCTGA)”, which “recombinant UMI read abundance (log10)” value is on record?
Answer: 1.43

Question: Which “recombinant UMI read abundance (log10)” value does the source give for “AGAAGGCCATGGACCGGTTTTCCCGGTAATCCGTATTTGAC (site AAAAGGCCTGT)” here?
Answer: 0

Question: Which “recombinant UMI read abundance (log10)” value does the source give for “AGAAGGCCATGGACCGGTTTTCCCGGTAATCCGTATTTGAC (site ACAAGGCCTGT)” here?
Answer: 0

Question: With “AGAAGGCCATGGACCGGTTTTCCCGGTAATCCGTATTTGAC (site AGAAGGCCTGT)” as the sequence, how does the “recombinant UMI read abundance (log10)” value read?
Answer: 0

Question: For “AGAAGGCCATGGACCGGTTTTCCCGGTAATCCGTATTTGAC (site ATAAGGCCTGT)”, which “recombinant UMI read abundance (log10)” value is on record?
Answer: 0

Question: With “AGAATGGCATGGACCGGTTTTCCCGGTAATCCGTATTTGCT (site AGAAAGGCTAG)” as the sequence, how does the “recombinant UMI read abundance (log10)” value read?
Answer: 1.89

Question: For “AGAATGGCATGGACCGGTTTTCCCGGTAATCCGTATTTGCT (site AGAACGGCTAG)”, which “recombinant UMI read abundance (log10)” value is on record?
Answer: 1.47

Question: With “AGAATGGCATGGACCGGTTTTCCCGGTAATCCGTATTTGCT (site AGAAGGGCTAG)” as the sequence, how does the “recombinant UMI read abundance (log10)” value read?
Answer: 0.34

Question: With “AGAATGGCATGGACCGGTTTTCCCGGTAATCCGTATTTGCT (site AGAATGGCTAG)” as the sequence, how does the “recombinant UMI read abundance (log10)” value read?
Answer: 2.19
